We go through two molecules from patent US20160252532A1, “pH-Biosensors Based on Compounds Produced From Pyruvic Acid For Magnetic Resonance Imaging and Spectroscopy and Their Uses” (TECHNISCHE UNIVERSITÄT MÜNCHEN, priority 2013, published 2016).

One data set has as its system MCF-7 tumor cells. The data set is described as follows: 13C-OMPD in cell culture medium with MCF-7 tumor cells immobilized in alginate beads (extracellular pH). Type of data set: cell-based. Conditions: ca. 6 mM fully-labeled 13C-OMPD, ca. 10 Mio. MCF-7 cells, 10 hours. The protocol: Ten ^13C-spectra (proton decoupled) of ca. 6 mM fully-labeled ^13C-OMPD dissolved in cell culture medium with ca. 10 Mio. MCF-7 tumor cells immobilized in alginate beads were acquired during a total time of 10 hours within every hour.
The pH sensitive OMPD-peaks 1, 5 and 6 of zymonic acid were also observed in ^13C-NMR spectra of ^13C-OMPD dissolved in cell culture medium with MCF-7 tumor cells immobilized in alginate beads.

The test system of a further data set is HeLa cells. The data set is described as follows: MTT assay cell viability (cytotoxicity test). The class given is cell-based. Conditions: 0.4 to 50 mM, 24 hours, up to tested concentration of 50 mM, ZA 100% pure, OMPD 80% OMPD/20% ZA. The protocol:
MTT assay with HeLa cells for testing cell viability after exposure to (A) OMPD and (B) zymonic acid (ZA) (0.4 to 50 mM) for 24 hours.
(12C, ZA: 100% pure; OMPD: 80% OMPD, 20% ZA).
Purified zymonic acid and OMPD were tested in a MTT assay with HeLa cells for testing cell viability after exposure to each substance at concentrations of 0.4 to 50 mM for 24 hours. After 24 hours incubation time, both substances are not cytotoxic up to the tested concentration of 50 mM.
(Tetrazolium dyes change colour on reduction, which living cells bring about.)

Data set [1] can be described thus: Stability in aqueous solution. The class given is physicochemical. The protocol: An exemplary ^13C spectrum (left column) and ^1H spectrum (right column) of zymonic acid produced from [1-^13C]-pyruvic acid. The relevant peaks 1 to 5, which shift in dependency of the pH value of the sample, are marked. The proton spectra show a buffered solution of zymonic acid in water and D2O, once measured right after preparation of the solution (top right) and 24 h later (bottom right).
The assignment of the NMR-peaks of zymonic acid was done using NMR prediction software (ChemDraw®) and standard 1D- and 2D-NMR-spectroscopy (see FIG. 5). […] The relevant peaks 1 to 5, which shift in dependency of the pH value of the sample, are marked. […] The proton spectra show a buffered solution of zymonic acid in water and D2O, once measured right after preparation of the solution (top right of FIG. 5) and 24 h later (bottom right of FIG. 5).

The subject of a further data set is rats. The experiment in a line: Toxicity tests in rats. The class given is in vivo. The protocol:
Toxicity tests with a volume of 5 mL/kg at an injection rate of 0.2 mL/s for three different concentrations (20 mM (A), 40 mM (B), 80 mM (C)). Injection solution contained 80 mM Tris buffer solution, titrated with 1M NaOH to pH 7.4.
20 mM, 40 mM, and 80 mM zymonic acid were injected into 3 rats within one week with 1 day break in between each injection (see FIG. 14).
Blood pressure, heart rate, blood oxygenation and animal temperature were monitored 10 minutes before and after the injection.

In the next data set the test system is rat bladder. The data set is described as follows: In vivo pH determination in rat bladder with copolarized zymonic acid and urea. Conditions: injection into rat bladder via catheter, 10 mm slice. The source says: FIG. 19. Copolarization of zymonic acid and urea, injection into the rat bladder via a catheter.
A 10 mm slice covering the bladder volume was chosen.
6 injections of copolarized zymonic acid in healthy rats via a catheter directly into the bladder followed by pH-imaging and pH-control of the urine before an after injection by pH-electrode (see FIG. 19).

For data set [2] the following is noted: cited from earlier work.

Take `C/C(=C/C(=O)C(=O)O)C(=O)O` [OMPD, (Z)-4-methyl-2-oxopent-3-enedioic acid]: the “metabolism within tumor cells” value with MCF-7 tumor cells is given as “not metabolized within tumor cells”. Further, the “cytotoxicity (cell viability, MTT)” value with HeLa cells is “not cytotoxic”. For the same molecule, in data set [1], the “stability in aqueous solutions” value was “stable in aqueous solutions”.
In the case of `CC1(C(=O)O)C=C(O)C(=O)O1` (stereo not shown) [zymonic acid, 4-hydroxy-2-methyl-5-oxo-2,5-dihydrofuran-2-carboxylic acid], the “cytotoxicity (cell viability, MTT)” value in the data set on HeLa cells is “not cytotoxic”. For the same molecule, the “behaviour of the animals” value in the data set with rats (20, 40 and 80 mM injections) was “No unusual behaviour”. Moreover, in the data set on rats (20, 40 and 80 mM, 5 mL/kg, 3 rats, injections within one week), the survival after injections entry is “survived all injections”. In the data set on rats (20, 40 and 80 mM, even after 3 days post last injection), the health problems entry was “did not show health problems”. In addition, the “decomposition in buffered solution” value in data set [1] (buffered solution in water and D2O, 24 hours, also cites Montgomery et al., 1956) is “slowly decomposed into parapyruvate within a period of 24 hours”. In addition, the “agreement of NMR-measured pH with electrode pH” value in the data set on rat bladder was “Electrode pH measurements confirm the pH values measured by NMR spectroscopy”. Also, in data set [2], the “pKa of the enolic group” value is given as 6.95.
